Data on 27 molecules can be found in patent US20110224208A1, “NOVEL INHIBITORS OF FLAVIVIRUS REPLICATION” (KATHOLIEKE UNIVERSITEIT LEUVEN, K.U. LEUVEN R&D, priority 2008, published 2011).

≈ marks a conversion by molar mass, not a printed value.

For series [1], the system named is HCV replicon I389luc-ubi-neo/NS3-3'/5.1. Put plainly: Anti-HCV replicon assay (luciferase activity) in Huh-5-2 cells. The class given is cell-based, Hepatitis C virus. Particulars: concentration required to inhibit luciferase activity in the replicon system by 50%. A digest of the protocol: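 Huh-5-2 cells carrying the luciferase HCV replicon, seeded 24 h, then exposed to serial compound dilutions without G418 for 72 h at 37° C, 5% CO2. Replication read as luciferase luminescence, expressed as percentage of untreated cultures; culture density measured in parallel by MTS.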

Series [2] in a line: Proliferation of exponentially growing Huh-5-2 cells (MTS method). Conditions: human, CC50, concentration required to inhibit the proliferation of exponentially growing Huh-5-2 cells by 50%; Table 2. On the procedure: Cells were seeded at a density of 7000 cells per well in 96 well View Plate™ (Packard) in medium containing the same components as described above, except for G418. Cells were allowed to adhere and proliferate for 24 hr. At that time, culture medium was removed and serial dilutions of the test compounds were added in culture medium lacking G418. Interferon alfa 2a (500 IU) was included as a positive control. Plates were further incubated at 37° C. and 5% CO2 for 72 hours. Replication of the HCV replicon in Huh-5 cells results in luciferase activity in the cells. Luciferase activity is measured by adding 50 μl of 1×Glo-lysis buffer (Promega) for 15 minutes followed by 50 ul of the Steady-Glo Luciferase assay reagent (Promega). Luciferase activity is measured with a luminometer and the signal in each individual well is expressed as a percentage of the untreated cultures. […] Instead the density of the culture is measured by means of the MTS method (Promega).
(Tetrazolium assays rely on reduction of a dye to a coloured formazan, in cell work by metabolically active cells.)

Setting [3] is: Hepatitis C virus, Huh-5-2, 72 h.

By IC50 is commonly meant the midpoint of a concentration-inhibition curve. Read a low IC50 as greater potency in that assay. One may read the CC50 as the concentration at which the toxic effect on the cells reaches its halfway point. A low value points to greater toxicity to the cells. In series [1] (setting [3]), `COCCN1C(=O)c2cc(OC)ccc2C(C(=O)Nc2cccc(OC)c2)C1c1cccs1` (stereo not drawn) [C50, 7-Methoxy-2-(2-methoxyethyl)-N-(3-methoxyphenyl)-1-oxo-3-(thiophen-2-yl)-1,2,3,4-tetrahydroisoquinoline-4-carboxamide] had an IC50 of 0.7 µg/mL (≈ 1.5 µM). In series [2], this molecule gave a CC50 at 72 h of 76.4 µg/mL (≈ 164 µM).

`COCCN1C(=O)c2ccccc2C(C(=O)Nc2cccc(OC)c2)C1c1cccnc1` (stereo not drawn) [C53, 2-(2-Methoxyethyl)-N-(3-methoxyphenyl)-1-oxo-3-(pyridin-3-yl)-1,2,3,4-tetrahydroisoquinoline-4-carboxamide] registered an IC50 in series [1] (setting [3]) of 52.9 µg/mL (≈ 123 µM). In series [2], this molecule yielded a CC50 at 72 h of 80.8 µg/mL (≈ 187 µM).

Molecule `COCCN1C(=O)c2ccccc2C(C(=O)Nc2cccc(OC)c2)C1C(C)(C)C` (stereo not drawn) [C57, 3-tert-Butyl-2-(2-methoxyethyl)-N-(3-methoxyphenyl)-1-oxo-1,2,3,4-tetrahydroisoquinoline-4-carboxamide] yielded an IC50 in series [1] (setting [3]) of 39.5 µg/mL (≈ 96.1 µM). Also, in series [2], it took 76.2 µg/mL (≈ 186 µM) to reach half-maximal cytotoxicity (CC50 at 72 h).

As to `CCOc1cccc(NC(=O)C2c3ccccc3C(=O)N(CCOC)C2c2cccs2)c1` (stereo not drawn) [C59, N-(3-ethoxyphenyl)-2-(2-methoxyethyl)-1-oxo-3-(thiophen-2-yl)-1,2,3,4-tetrahydroisoquinoline-4-carboxamide], it took 0.3 µg/mL (≈ 0.666 µM) to reach half-maximal inhibition in series [1] (setting [3]) (IC50). In series [2], this molecule came in with a CC50 at 72 h of 88.1 µg/mL (≈ 196 µM).

On to `COc1cccc(NC(=O)C2c3ccccc3C(=O)N(CC(F)(F)F)C2c2cccs2)c1` (stereo not drawn) [C62, N-(3-methoxyphenyl)-1-oxo-3-(thiophen-2-yl)-2-(2,2,2-trifluoroethyl)-1,2,3,4-tetrahydroisoquinoline-4-carboxamide], for which, in series [1] (setting [3]), inhibition was half-maximal at 8.81 µg/mL (≈ 19.1 µM) (IC50). Further, it took 16.4 µg/mL (≈ 35.5 µM) to reach half-maximal cytotoxicity in series [2] (CC50 at 72 h).

As for `COc1cccc(NC(=O)C2c3ccccc3C(=O)N(CCCN3CCOCC3)C2c2cccs2)c1` (stereo not drawn) [C64, N-(3-methoxyphenyl)-2-(3-morpholinopropyl)-1-oxo-3-(thiophen-2-yl)-1,2,3,4-tetrahydroisoquinoline-4-carboxamide], the IC50 in series [1] (setting [3]) amounted to 23.9 µg/mL (≈ 47.2 µM). It took 47.8 µg/mL (≈ 94.5 µM) to reach half-maximal cytotoxicity in series [2] (CC50 at 72 h).

Take `CCOCCN1C(=O)c2ccccc2C(C(=O)Nc2cccc(OC)c2)C1c1cccs1` (stereo not drawn) [C65, 2-(2-Ethoxyethyl)-N-(3-methoxyphenyl)-1-oxo-3-(thiophen-2-yl)-1,2,3,4-tetrahydroisoquinoline-4-carboxamide]: the IC50 in series [1] (setting [3]) is 1.76 µg/mL (≈ 3.91 µM). Also, the midpoint of cytotoxicity in series [2], the CC50 at 72 h, lay at 90.2 µg/mL (≈ 200 µM).

For `COc1cccc(NC(=O)C2c3ccccc3C(=O)N(CCOC(C)C)C2c2cccs2)c1` (stereo not drawn) [C66, 2-(2-Isopropoxyethyl)-N-(3-methoxyphenyl)-1-oxo-3-(thiophen-2-yl)-1,2,3,4-tetrahydroisoquinoline-4-carboxamide], the midpoint of inhibition in series [1] (setting [3]), the IC50, lay at 1.99 µg/mL (≈ 4.28 µM). It took 39.2 µg/mL (≈ 84.4 µM) to reach half-maximal cytotoxicity in series [2] (CC50 at 72 h).

On to `COCCN1C(=O)c2ccccc2C(C(=O)NCc2cccc3ccccc23)C1c1cccs1` (stereo not drawn) [C72, 2-(2-methoxyethyl)-N-(naphthalen-1-ylmethyl)-1-oxo-3-(thiophen-2-yl)-1,2,3,4-tetrahydroisoquinoline-4-carboxamide], for which the IC50 in series [1] (setting [3]) was found to be 35.8 µg/mL (≈ 76.1 µM). This molecule also had a CC50 at 72 h in series [2] of 71.2 µg/mL (≈ 151 µM).

As to `COCCN1C(=O)c2ccccc2C(C(=O)Nc2ccc3scnc3c2)C1c1cccs1` (stereo not drawn) [C81, N-(benzo[d]thiazol-5-yl)-2-(2-methoxyethyl)-1-oxo-3-(thiophen-2-yl)-1,2,3,4-tetrahydroisoquinoline-4-carboxamide], in series [1] (72 hours), the IC50 was 0.16 µg/mL (≈ 0.345 µM). In series [2], this molecule registered a CC50 at 72 h of 65 µg/mL (≈ 140 µM).

As for `COCCN1C(=O)c2ccccc2C(C(=O)Nc2cccc(OC)c2)C1CSC` (stereo not drawn) [C82, 2-(2-methoxyethyl)-N-(3-methoxyphenyl)-3-(methylthiomethyl)-1-oxo-1,2,3,4-tetrahydroisoquinoline-4-carboxamide], the IC50 in series [1] (setting [3]) came out at 12 µg/mL (≈ 28.9 µM). Further, in series [2], the half-maximal cytotoxic concentration (CC50) at 72 h stood at 72 µg/mL (≈ 174 µM).

Molecule `C#CC1C(C(=O)Nc2cccc(OC)c2)c2ccccc2C(=O)N1CCOC` (stereo not drawn) [C83, 3-ethynyl-2-(2-methoxyethyl)-N-(3-methoxyphenyl)-1-oxo-1,2,3,4-tetrahydroisoquinoline-4-carboxamide] yielded an IC50 in series [1] (setting [3]) of 0.4 µg/mL (≈ 1.06 µM). Further, in series [2], the CC50 at 72 h came to 70 µg/mL (≈ 185 µM).

The molecule `COCCN1C(=O)c2ccccc2C(C(=O)Nc2ccc(C)cc2)C1c1cccs1` (stereo not drawn) [C86, 2-(2-methoxyethyl)-1-oxo-3-(thiophen-2-yl)-N-p-tolyl-1,2,3,4-tetrahydroisoquinoline-4-carboxamide] gave an IC50 in series [1] (setting [3]) of 0.25 µg/mL (≈ 0.594 µM). Further, half-maximal cytotoxicity in series [2] (CC50 at 72 h) was put at 75 µg/mL (≈ 178 µM).

As to `COCCN1C(=O)c2ccccc2C(C(=O)Nc2ccc(F)c(F)c2)C1c1cccs1` (stereo not drawn) [C88, N-(3,4-difluorophenyl)-2-(2-methoxyethyl)-1-oxo-3-(thiophen-2-yl)-1,2,3,4-tetrahydroisoquinoline-4-carboxamide], the IC50 in series [1] (setting [3]) was 2.7 µg/mL (≈ 6.1 µM). The molecule further yielded a CC50 at 72 h in series [2] of 60 µg/mL (≈ 136 µM).

Take `COCCN1C(=O)c2ccccc2C(C(=O)Nc2cccc(Cc3ccccc3)c2)C1c1cccs1` (stereo not drawn) [C89, N-(3-benzylphenyl)-2-(2-methoxyethyl)-1-oxo-3-(thiophen-2-yl)-1,2,3,4-tetrahydroisoquinoline-4-carboxamide]: the IC50 in series [1] (setting [3]) came out at 0.11 µg/mL (≈ 0.221 µM). Besides, in series [2], the CC50 at 72 h worked out at 0.62 µg/mL (≈ 1.25 µM).

The molecule `COCCN1C(=O)c2c(ccc(C)c2F)C(C(=O)Nc2cccc(OC)c2)C1c1cccs1` (stereo not drawn) [C93, 8-fluoro-2-(2-methoxyethyl)-N-(3-methoxyphenyl)-7-methyl-1-oxo-3-(thiophen-2-yl)-1,2,3,4-tetrahydroisoquinoline-4-carboxamide] returned an IC50 in series [1] (setting [3]) of 0.17 µg/mL (≈ 0.363 µM). For the same molecule, half-maximal cytotoxicity in series [2] (CC50 at 72 h) was put at 32.9 µg/mL (≈ 70.2 µM).

On to `COCCN1C(=O)c2ccccc2C(C(=O)Nc2ccc(F)cc2)C1c1cccs1` (stereo not drawn) [C95, N-(4-fluorophenyl)-2-(2-methoxyethyl)-1-oxo-3-(thiophen-2-yl)-1,2,3,4-tetrahydroisoquinoline-4-carboxamide], for which the IC50 in series [1] (setting [3]) is 2.21 µg/mL (≈ 5.21 µM). In series [2], this molecule yielded a CC50 at 72 h of 76.3 µg/mL (≈ 180 µM).

In series [1] (setting [3]), `COCCN1C(=O)c2ccccc2C(C(=O)Nc2cccc(OC)c2)C1CC1CCOCC1` (stereo not drawn) [C97, 2-(2-methoxyethyl)-N-(3-methoxyphenyl)-1-oxo-3-((tetrahydro-2H-pyran-4-yl)methyl)-1,2,3,4-tetrahydroisoquinoline-4-carboxamide] had an IC50 of 51.6 µg/mL (≈ 114 µM). The molecule further came in with a CC50 at 72 h in series [2] of 80 µg/mL (≈ 177 µM).

Molecule `COCCN1C(=O)c2ccccc2C(C(=O)Nc2cccc(OC)c2)C1c1csc(C)n1` (stereo not drawn) [C98, 2-(2-methoxyethyl)-N-(3-methoxyphenyl)-3-(2-methylthiazol-4-yl)-1-oxo-1,2,3,4-tetrahydroisoquinoline-4-carboxamide] gave a 50% inhibitory concentration (IC50) in series [1] (setting [3]) of 50.3 µg/mL (≈ 111 µM). The CC50 at 72 h in series [2] is 80.9 µg/mL (≈ 179 µM).

For the molecule `COCCN1C(=O)c2ccccc2C(C(=O)Nc2cccc(OC)c2)C1c1cc(C)nn1C` (stereo not drawn) [C100, 3-(1,3-dimethyl-1H-pyrazol-5-yl)-2-(2-methoxyethyl)-N-(3-methoxyphenyl)-1-oxo-1,2,3,4-tetrahydroisoquinoline-4-carboxamide], the IC50 in series [1] (setting [3]) worked out at 56.8 µg/mL (≈ 127 µM). The molecule further came in with a CC50 at 72 h in series [2] of 86.7 µg/mL (≈ 193 µM).

Turning to `COCCN1C(=O)c2ccccc2C(C(=O)Nc2cccc(OC)c2)C1c1nccs1` (stereo not drawn) [C102, 2-(2-methoxyethyl)-N-(3-methoxyphenyl)-1-oxo-3-(thiazol-2-yl)-1,2,3,4-tetrahydroisoquinoline-4-carboxamide], in series [1] (setting [3]), the IC50 came out at 26.8 µg/mL (≈ 61.3 µM). The same molecule came in with a CC50 at 72 h in series [2] of 72.8 µg/mL (≈ 166 µM).

Regarding `COCCN1C(=O)c2ccccc2C(C(=O)Nc2cccc(OC)c2)C1c1cc(C)on1` (stereo not drawn) [C103, 2-(2-methoxyethyl)-N-(3-methoxyphenyl)-3-(5-methylisoxazol-3-yl)-1-oxo-1,2,3,4-tetrahydroisoquinoline-4-carboxamide], 40.4 µg/mL (≈ 92.7 µM) corresponded to half-maximal inhibition in series [1] (setting [3]) (IC50). In series [2], this molecule displayed a CC50 at 72 h of 75.2 µg/mL (≈ 173 µM).

In series [1] (setting [3]), `COCCN1C(=O)c2ccccc2C(C(=O)Nc2ccc(N3CCCCC3)cc2)C1c1cccs1` (stereo not drawn) [C107, 2-(2-methoxyethyl)-1-oxo-N-(4-(piperidin-1-yl)phenyl)-3-(thiophen-2-yl)-1,2,3,4-tetrahydroisoquinoline-4-carboxamide] returned an IC50 of 0.12 µg/mL (≈ 0.245 µM). This molecule also displayed a CC50 at 72 h in series [2] of 23.5 µg/mL (≈ 47.9 µM).

In series [1] (setting [3]), `COCCN1C(=O)c2ccccc2C(C(=O)Nc2cccc(NC(C)=O)c2)C1c1cccs1` (stereo not drawn) [C108, N-(3-acetamidophenyl)-2-(2-methoxyethyl)-1-oxo-3-(thiophen-2-yl)-1,2,3,4-tetrahydroisoquinoline-4-carboxamide] returned an IC50 of 3.71 µg/mL (≈ 8 µM). This molecule also registered a CC50 at 72 h in series [2] of 77.3 µg/mL (≈ 167 µM).

On to `COCCN1C(=O)c2ccccc2C(C(=O)Nc2cccc(C(F)(F)F)c2)C1c1cccs1` (stereo not drawn) [C110, 2-(2-methoxyethyl)-1-oxo-3-(thiophen-2-yl)-N-(3-(trifluoromethyl)phenyl)-1,2,3,4-tetrahydroisoquinoline-4 carboxamide], for which, in series [1] (setting [3]), the IC50 came to 1.45 µg/mL (≈ 3.06 µM). This molecule also had a CC50 at 72 h in series [2] of 79.3 µg/mL (≈ 167 µM).

`COCCN1C(=O)c2ccccc2C(C(=O)Nc2ccc(Cl)c(OC)c2)C1c1cccs1` (stereo not drawn) [C111, N-(4-chloro-3-methoxyphenyl)-2-(2-methoxyethyl)-1-oxo-3-(thiophen-2-yl)-1,2,3,4-tetrahydroisoquinoline-4-carboxamide]: the IC50 in series [1] (setting [3]) is 0.17 µg/mL (≈ 0.361 µM). In series [2], this molecule registered a CC50 at 72 h of 86.7 µg/mL (≈ 184 µM).

As to `COCCN1C(=O)c2ccccc2C(C(=O)Nc2ccc3c(c2)OCCO3)C1c1cccs1` (stereo not drawn) [C117, N-(2,3-dihydrobenzo[b][1,4]dioxin-6-yl)-2-(2-methoxyethyl)-1-oxo-3-(thiophen-2-yl)-1,2,3,4-tetrahydroisoquinoline-4-carboxamide], in series [1] (setting [3]), the IC50 stood at 0.36 µg/mL (≈ 0.775 µM). In addition, the CC50 at 72 h in series [2] was 81.9 µg/mL (≈ 176 µM).
